Where “and” joins values, the source holds several entries; their conditions need not be identical. Identical values can stand only once.
Assays:
streptavidin (STR) = streptavidin (STR) (Streptomyces avidinii, UniProt P22629); assay: Protein labeling with reactive dye, degree of substitution on streptavidin; settings: for Degree of Substitution: STR
Protocol: Protein conjugates of sulforhodamine 101 are prepared using Compound 2 (Example 2). The degree of substitution achieved on the selected proteins (bovine serum albumin (BSA), goat anti-mouse IgG (GAM) or streptavidin (STR)) is then determined.
A fresh solution of the desired protein is prepared that is 10 mg protein/mL in 0.1 M sodium bicarbonate. The labeling reagent (Compound 2) is dissolved in DMF to give a concentration of 10 mg dye/mL. Predetermined amounts of the labeling reagent in DMF are slowly added to the protein solution with stirring. A molar ratio of 10 equivalents dye to equivalent of protein is typical, though the optimal amount varies with particular labeling reagent and protein being labeled. The reaction mixture is incubated at room temperature for one hour. The dye-protein conjugate is separated from free unreacted reagent by gel filtration on a CELLUFINE GH-25 column equilibrated in PBS. The initial, protein-containing colored band is collected from the column, and the degree of substitution is determined by measuring the absorbance of the conjugate at 595 nm, and calculating the degree of substitution using an extinction coefficient of 80,000 cm^−1M^−1 for the dye.
Dye conjugates are similarly prepared using SSC excepting that the protein solution is maintained at pH 9, and the labeling reaction is conducted at ice bath temperatures to minimize hydrolysis of the labeling reagent.

[1] = biological target: bovine serum albumin (BSA) (Bos taurus, UniProt P02769); assay: Protein labeling with reactive dye, degree of substitution on BSA; settings: Dye:Protein Ratio 15
Sequence of bovine serum albumin (BSA) (P02769 25-607): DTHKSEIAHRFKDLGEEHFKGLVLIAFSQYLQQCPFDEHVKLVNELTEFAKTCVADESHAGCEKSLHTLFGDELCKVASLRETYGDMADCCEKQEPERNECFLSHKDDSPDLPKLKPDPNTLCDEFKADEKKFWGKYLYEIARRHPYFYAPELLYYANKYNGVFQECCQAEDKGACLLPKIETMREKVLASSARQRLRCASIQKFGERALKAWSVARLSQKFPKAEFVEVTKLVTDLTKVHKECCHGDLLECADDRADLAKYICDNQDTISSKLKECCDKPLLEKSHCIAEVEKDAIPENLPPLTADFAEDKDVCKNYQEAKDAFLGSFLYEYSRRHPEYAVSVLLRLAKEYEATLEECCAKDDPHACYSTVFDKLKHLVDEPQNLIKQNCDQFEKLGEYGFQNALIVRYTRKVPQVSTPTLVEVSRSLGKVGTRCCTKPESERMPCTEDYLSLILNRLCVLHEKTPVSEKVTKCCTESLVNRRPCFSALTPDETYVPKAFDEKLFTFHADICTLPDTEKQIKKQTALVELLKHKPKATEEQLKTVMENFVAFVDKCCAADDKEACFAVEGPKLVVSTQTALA
Protocol: A fresh solution of the desired protein is prepared that is 10 mg protein/mL in 0.1 M sodium bicarbonate. […] Predetermined amounts of the labeling reagent in DMF are slowly added to the protein solution with stirring. A molar ratio of 10 equivalents dye to equivalent of protein is typical, though the optimal amount varies with particular labeling reagent and protein being labeled. The reaction mixture is incubated at room temperature for one hour. The dye-protein conjugate is separated from free unreacted reagent by gel filtration on a CELLUFINE GH-25 column equilibrated in PBS. The initial, protein-containing colored band is collected from the column, and the degree of substitution is determined by measuring the absorbance of the conjugate at 595 nm, and calculating the degree of substitution using an extinction coefficient of 80,000 cm^−1M^−1 for the dye.

[2] = 90% DMF and 10% aqueous sodium bicarbonate; two hours of incubation; TLC
Protocol: Compound 2 and SSC are separately dissolved in solutions that are 90% DMF and 10% aqueous sodium bicarbonate. Each solution is analyzed using thin layer chromatography (TLC) as follows: An aliquot from each sample is diluted 1:100 in methanol and 1 μL of the resulting solution is spotted on a silica gel TLC plate and developed in 15% methanol in chloroform.

Sequence of streptavidin (STR) (P22629 25-183, species assumed): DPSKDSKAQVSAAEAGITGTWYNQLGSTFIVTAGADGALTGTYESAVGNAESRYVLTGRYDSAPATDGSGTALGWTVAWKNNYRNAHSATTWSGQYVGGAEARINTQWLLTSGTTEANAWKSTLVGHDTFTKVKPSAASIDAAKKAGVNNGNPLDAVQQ

| Compound | Degree of substitution of the streptavidin conjugates used as immunoreagents (streptavidin (STR); two conjugates used in Example 24) | Degree of Substitution [1] | Degree of Substitution (streptavidin (STR); Dye:Protein Ratio 1) | Degree of Substitution (streptavidin (STR); Dye:Protein Ratio 2.5) | Degree of Substitution (streptavidin (STR); Dye:Protein Ratio 5.5) | Degree of Substitution (streptavidin (STR); Dye:Protein Ratio 8.0) | Degree of Substitution (streptavidin (STR); Dye:Protein Ratio 10) | Degree of Substitution (streptavidin (STR); Dye:Protein Ratio 20) | Degree of Substitution (streptavidin (STR); Dye:Protein Ratio 30) | Decomposition in the presence of water [2] |
| --- | --- | --- | --- | --- | --- | --- | --- | --- | --- | --- |
| streptavidin conjugates of SSC: two streptavidin conjugates prepared with SSC [reference compound] | 2.4 dyes per mole and 3.9 dyes per mole | – | – | – | – | – | – | – | – | – |
| sulfonyl chloride of sulforhodamine 101 [SSC, reference compound] | – | 3.2 | 0.066 | 1.2 | 2.4 | 3.0 | 3.9 | 4.9 | 5.1 | – |
| O=C(CCCCCNS(=O)(=O)c1ccc(C2=c3cc4c5c(c3Oc3c2cc2c6c3CCCN6CCC2)CCC[N+]=5CCC4)c(S(=O)(=O)[O-])c1)ON1C(=O)CCC1=O [Compound 2] | – | 4.5 | 0.76 | 1.6 | 4.4 | 5.6 | 6.0 | 6.0 | 6.9 | 10-20% |

Reference: patent publication US6562632B1, “Reactive derivatives of sulforhodamine 101 with enhanced hydrolytic stability” (Molecular Probes, Inc., priority 1995, dated 2003)
